From patent US10364256B2 (GlaxoSmithKline Intellectual Property Development Limited, priority 2015, dated 2019)
Structures can show the parent of a compound that is named as a salt. Where two headings read alike, the source gives them in different places.

How the values were obtained:
[1] = molecular target: T1, full length Keap1 protein / full length NRF2 protein (Homo sapiens, UniProt Q14145); experiment: NRF2-Keap1 TR-FRET Low Protein Assay; format: binding; details: 1.25 nM Keap1 FlagHis and 2.5 nM biotin-NRF2 added
T1 construct: full length NRF2 protein and full length Keap1 protein (Keap1 exists a dimer) are used; His
Summary of the method: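 Flag-tagged full-length Keap1 was preincubated with compound (3-fold series) for 2.25 h at 37 °C in Tris pH 8.0/MgCl2/NaCl/BSA/DTT/CHAPS. Biotin-Avi-NRF2 (added at 2.5 nM) was then bound for 1.25 h at 4 °C. Eu-streptavidin/anti-Flag-APC TR-FRET (665/615 nm) was read after 1 h at RT, and pIC50 came from a four-parameter fit.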

[2] = tested on: NQO1 specific enzyme activity in BEAS-2B cells (marker for NRF2 activation); experiment: BEAS-2B NQO1 MTT Assay; format: cell-based; details: compound incubated 48 hours, read-out: EC50 (NQO1 specific enzyme activity induction)
Summary of the method: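 NQO1 specific activity induction is derived from the rate of MTT reduction (ΔOD/min, 570 nm, 30 min kinetic read) in crude lysates of BEAS-2B cells exposed to compound for 48 h. A 3-parameter fit gives EC50, reported as pEC50; part of each lysate goes to Cell Titer Glo.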

[3] = molecular target: T2, Keap1 Kelch domain (321-609) / TAMRA-labeled 16mer NRF2 peptide (ETGE motif) (Homo sapiens, UniProt Q14145); experiment: NRF2-Keap1 FP Assay (Keap1 Kelch fluorescence polarization); format: binding; details: 20 nM Keap1 (321-609), 8 nM Tamra labeled peptide
T2 construct: the Kelch domain (321-609) of Keap1 is used
Summary of the method: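 Compound dilutions (3-fold) were incubated 1 hr at room temperature with 20 nM Keap1 Kelch (321-609) and 8 nM TAMRA-labeled ETGE 16mer peptide. Buffer was 50 mM Tris pH 8.0, 100 mM NaCl, 5 mM MgCl2, 1 mM DTT, 2 mM CHAPS, 0.005% BSA. Fluorescence polarization (mP) was normalized to controls and fitted with a four-parameter equation to give pIC50.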

T1 sequence (Q14145 whole entry): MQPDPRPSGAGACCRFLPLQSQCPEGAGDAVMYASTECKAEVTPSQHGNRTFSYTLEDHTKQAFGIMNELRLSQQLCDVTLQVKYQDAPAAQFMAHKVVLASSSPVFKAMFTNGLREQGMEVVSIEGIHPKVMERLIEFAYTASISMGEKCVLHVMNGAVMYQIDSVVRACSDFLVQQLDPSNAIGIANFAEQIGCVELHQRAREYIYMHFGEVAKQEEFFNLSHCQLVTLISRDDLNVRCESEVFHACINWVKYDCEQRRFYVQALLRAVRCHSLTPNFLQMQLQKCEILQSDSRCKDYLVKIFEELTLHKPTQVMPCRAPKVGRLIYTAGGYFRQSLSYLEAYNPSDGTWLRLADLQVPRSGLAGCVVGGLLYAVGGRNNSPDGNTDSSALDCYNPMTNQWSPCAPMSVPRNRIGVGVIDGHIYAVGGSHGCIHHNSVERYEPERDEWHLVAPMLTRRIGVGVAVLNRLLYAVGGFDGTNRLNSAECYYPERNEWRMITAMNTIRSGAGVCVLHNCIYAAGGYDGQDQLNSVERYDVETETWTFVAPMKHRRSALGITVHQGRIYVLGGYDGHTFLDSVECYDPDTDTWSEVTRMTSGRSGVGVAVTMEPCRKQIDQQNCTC
T2 sequence (Q14145 321-609): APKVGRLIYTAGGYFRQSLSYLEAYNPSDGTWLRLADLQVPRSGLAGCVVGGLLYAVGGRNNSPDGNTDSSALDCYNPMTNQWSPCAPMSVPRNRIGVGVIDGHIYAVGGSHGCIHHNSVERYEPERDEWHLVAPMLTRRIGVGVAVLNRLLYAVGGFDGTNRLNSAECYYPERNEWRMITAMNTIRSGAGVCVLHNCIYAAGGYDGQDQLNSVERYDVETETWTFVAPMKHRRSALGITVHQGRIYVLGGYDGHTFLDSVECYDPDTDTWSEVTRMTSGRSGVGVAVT

| Structure (SMILES) | IC50 [1] | IC50 [3] | EC50 ([2]; Homo sapiens) | EC50 ([2]; Homo sapiens, BEAS-2B, 48 h) | EC50 [2] |
| --- | --- | --- | --- | --- | --- |
| CC(Oc1cccc(-c2cccc(-n3ncc(C(=O)O)c3[C@H]3C[C@@H]3c3cn(C(C)C)nn3)c2)c1)C1CCCCC1 (mixture of isomers) [Example 195, 1-(3′-(1-cyclohexylethoxy)-[1,1′-biphenyl]-3-yl)-5-((1,2-trans)-2-(1-isopropyl-1H-1,2,3-triazol-4-yl)cyclopropyl)-1H-pyrazole-4-carboxylic acid] | 10 to 100 nM | 100 to 1000 nM | 10 to 100 nM | – | – |
| CC(Oc1ccc(-c2cccc(-n3ncc(C(=O)O)c3[C@H]3C[C@@H]3c3cn(C)nn3)c2)cc1)C1CCCCC1 (mixture of isomers) [Example 241, 1-(4′-(1-Cyclohexylethoxy)-[1,1′-biphenyl]-3-yl)-5-((1,2-trans)-2-(1-methyl-1H-1,2,3-triazol-4-yl)cyclopropyl)-1H-pyrazole-4-carboxylic Acid] | > 100000 nM | > 10000 nM | 1000 to 10000 nM | – | – |
| CCC(Oc1cccc(-c2cccc(-n3ncc(C(=O)O)c3[C@H]3C[C@@H]3c3cn(C)nn3)c2)c1)C1CCCCC1 (mixture of isomers) [Example 242] | 10 to 100 nM | 10 to 100 nM | 10 to 100 nM | – | – |
| Cn1cc([C@@H]2C[C@H]2c2c(C(=O)O)cnn2-c2cccc(-c3cccc(CN4CCOc5ccccc5C4)c3)c2)nn1 (racemic) [Example 256, 1-(3′-((2,3-Dihydrobenzo[f][1,4]oxazepin-4(5H)-yl)methyl)-[1,1′-biphenyl]-3-yl)-5-(trans-2-(1-methyl-1H-1,2,3-triazol-4-yl)cyclopropyl)-1H-pyrazole-4-carboxylic Acid] | 10 to 100 nM | 10 to 100 nM | 1000 to 10000 nM | – | – |
| CC(Cc1cccc(-c2cccc(-n3ncc(C(=O)O)c3[C@@H]3C[C@H]3c3cn(C)nn3)c2)c1)C1CCCCC1 (single isomer, unassigned) [Example 116e, 1-(3′-((R) or (S)-2-Cyclohexylpropyl)-[1,1′-biphenyl]-3-yl)-5-((1R,2R)-2-(1-methyl-1H-1,2,3-triazol-4-yl)cyclopropyl)-1H-pyrazole-4-carboxylic Acid] | 10 to 100 nM | 10 to 100 nM | 1 to 10 nM | – | – |
| C[C@@H]1Cc2ccc(Br)cc2S(=O)(=O)N(Cc2cccc(-c3cccc(-n4ncc(C(=O)O)c4[C@@H]4C[C@H]4c4cn(C)nn4)c3)c2)C1 (single isomer, unassigned; isomer 2) [Example 135] | 10 to 100 nM | 10 to 100 nM | 10 to 100 nM | – | – |
| C[C@H](Oc1cccc(-c2cccc(-n3ncc(C(=O)O)c3[C@@H]3C[C@H]3c3cn(C)nn3)c2)c1)C1CCCCC1 [Example 64, 1-(3′-((S)-1-Cyclohexylethoxy)-[1,1′-biphenyl]-3-yl)-5-((1R,2R)-2-(1-methyl-1H-1,2,3-triazol-4-yl)cyclopropyl)-1H-pyrazole-4-carboxylic Acid] | < 10 nM | 10 to 100 nM | – | 10 to 100 nM | – |
| C[C@H](Oc1cccc(-c2cccc(-n3ncc(C(=O)O)c3[C@@H]3C[C@H]3c3cn(C)nn3)c2)c1)C1CCCCC1 [Example 68, 1-(3′-((S)-1-Cyclohexylethoxy)-[1,1′-biphenyl]-3-yl)-5-((1R,2R)-2-(1-methyl-1H-1,2,3-triazol-4-yl)cyclopropyl)-1H-pyrazole-4-carboxylate, Sodium salt] | < 10 nM | 10 to 100 nM | – | 1 to 10 nM | – |
| C[C@H](Oc1cccc(-c2cccc(-n3ncc(C(=O)O)c3[C@@H]3C[C@H]3c3cn(C)nn3)c2)c1)C1CCCCC1 [Example 69, Barium 1-(3′-((S)-1-Cyclohexylethoxy)-[1,1′-biphenyl]-3-yl)-5-((1R,2R)-2-(1-methyl-1H-1,2,3-triazol-4-yl)cyclopropyl)-1H-pyrazole-4-carboxylate Hydroxide] | < 10 nM | 1 to 10 nM | – | – | < 1 nM |
| C[C@H](Oc1cccc(-c2cccc(-n3ncc(C(=O)O)c3[C@@H]3C[C@H]3c3cn(C)nn3)c2)c1)C1CCCCC1 [Example 70, Calcium 1-(3′-((S)-1-Cyclohexylethoxy)-[1,1′-biphenyl]-3-yl)-5-((1R,2R)-2-(1-methyl-1H-1,2,3-triazol-4-yl)cyclopropyl)-1H-pyrazole-4-carboxylate Hydroxide] | < 10 nM | 10 to 100 nM | < 1 nM | – | – |
| C[C@@H](Oc1cccc(-c2cccc(-n3ncc(C(=O)O)c3[C@@H]3C[C@H]3c3cn(C)nn3)c2)c1)C1CCCCCC1 [Example 74, 1-(3′-((R)-1-Cycloheptylethoxy)-[1,1′-biphenyl]-3-yl)-5-((1R,2R)-2-(1-methyl-1H-1,2,3-triazol-4-yl)cyclopropyl)-1H-pyrazole-4-carboxylic Acid] | 10 to 100 nM | 10 to 100 nM | 10 to 100 nM | – | – |
| C[C@H](Oc1cccc(-c2cccc(-n3ncc(C(=O)O)c3[C@@H]3C[C@H]3c3cn(C4CCOCC4)nn3)c2)c1)C1CCCCC1 [Example 95, 1-(3′-((S)-1-Cyclohexylethoxy)-[1,1′-biphenyl]-3-yl)-5-((1R,2R)-2-(1-(tetrahydro-2H-pyran-4-yl)-1H-1,2,3-triazol-4-yl)cyclopropyl)-1H-pyrazole-4-carboxylic Acid] | < 10 nM | 10 to 100 nM | 1 to 10 nM | – | – |
| C[C@H](Oc1cccc(-c2cccc(-n3ncc(C(=O)O)c3[C@H]3C[C@@H]3c3cn(C4CCOCC4)nn3)c2)c1)C1CCCCC1 [Example 96] | 100 to 1000 nM | 1000 to 10000 nM | 100 to 1000 nM | – | – |
| C[C@H](Oc1cccc(-c2cccc(-n3ncc(C(=O)O)c3[C@@H]3C[C@H]3c3cn(CC(F)(F)F)nn3)c2)c1)C1CCCCC1 [Example 97, 1-(3′-((S)-1-Cyclohexylethoxy)-[1,1′-biphenyl]-3-yl)-5-((1R,2R)-2-(1-(2,2,2-trifluoroethyl)-1H-1,2,3-triazol-4-yl)cyclopropyl)-1H-pyrazole-4-carboxylic acid] | 10 to 100 nM | 10 to 100 nM | 1 to 10 nM | – | – |
| C[C@H](Oc1cccc(-c2cccc(-n3ncc(C(=O)O)c3[C@@H]3C[C@H]3c3cn(C4CC4)nn3)c2)c1)C1CCCCC1 [Example 98, 1-(3′-((S)-1-Cyclohexylethoxy)-[1,1′-biphenyl]-3-yl)-5-((1R,2R)-2-(1-cyclopropyl-1H-1,2,3-triazol-4-yl)cyclopropyl)-1H-pyrazole-4-carboxylic acid] | < 10 nM | 10 to 100 nM | 1 to 10 nM | – | – |

Continued, in another order:

| IC50 [1] | IC50 [3] | Structure (SMILES) | EC50 ([2]; Homo sapiens) | EC50 ([2]; Homo sapiens, BEAS-2B, 48 h) | EC50 [2] |
| --- | --- | --- | --- | --- | --- |
| < 10 nM | 10 to 100 nM | CCC[C@@H]1CCCCN1C(=O)c1cccc(-c2cccc(-n3ncc(C(=O)O)c3[C@H]3C[C@@H]3c3cn(C(C)C)nn3)c2)c1 (racemic) [Example 200] | – | 100 to 1000 nM | – |
| < 10 nM | 10 to 100 nM | CC[C@H]1c2ccccc2OCCN1Cc1cccc(-c2cccc(-n3ncc(C(=O)O)c3[C@@H]3C[C@H]3c3cn(C)nn3)c2)c1 (single isomer, unassigned; isomer 1) [Example 122] | – | – | 10 to 100 nM |
| < 10 nM | 10 to 100 nM | CC[C@H]1c2ccccc2OC(C)(C)CN1Cc1cccc(-c2cccc(-n3ncc(C(=O)O)c3[C@@H]3C[C@H]3c3cn(C)nn3)c2)c1 (single isomer, unassigned; isomer 1) [Example 124] | 10 to 100 nM | – | – |
| < 10 nM | 10 to 100 nM | C[C@H]1Cc2ccc(Br)cc2S(=O)(=O)N(Cc2cccc(-c3cccc(-n4ncc(C(=O)O)c4[C@@H]4C[C@H]4c4cn(C)nn4)c3)c2)C1 (single isomer, unassigned; isomer 1) [Example 134] | 100 to 1000 nM | – | – |
| < 10 nM | 1 to 10 nM | CC[C@H]1c2ccccc2OCCN1Cc1cccc(-c2cccc(-n3ncc(C(=O)O)c3[C@@H]3C[C@H]3c3cn(C)nn3)c2)c1 (single isomer, unassigned; isomer 2) [Example 121] | 10 to 100 nM | – | – |
| < 10 nM | 10 to 100 nM | CC[C@@H]1c2ccccc2OC(C)(C)CN1Cc1cccc(-c2cccc(-n3ncc(C(=O)O)c3[C@@H]3C[C@H]3c3cn(C)nn3)c2)c1 (single isomer, unassigned; isomer 2) [Example 125] | 1 to 10 nM | – | – |
| < 10 nM | 10 to 100 nM | CC[C@@H]1CN(Cc2cccc(-c3cccc(-n4ncc(C(=O)O)c4[C@@H]4C[C@H]4c4cn(C)nn4)c3)c2)Cc2ccccc2O1 [Example 65, 1-(3′-(((R)-2-Ethyl-2,3-dihydrobenzo[f][1,4]oxazepin-4(5H)-yl)methyl)-[1,1′-biphenyl]-3-yl)-5-((1R,2R)-2-(1-methyl-1H-1,2,3-triazol-4-yl)cyclopropyl)-1H-pyrazole-4-carboxylic Acid] | 100 to 1000 nM | – | – |
| < 10 nM | 10 to 100 nM | C[C@H](Oc1cccc(-c2cccc(-n3ncc(C(=O)O)c3[C@@H]3C[C@H]3c3cn(C)nn3)c2)c1)C1CCCCCC1 [Example 73, 1-(3′-((S)-1-Cycloheptylethoxy)-[1,1′-biphenyl]-3-yl)-5-((1R,2R)-2-(1-methyl-1H-1,2,3-triazol-4-yl)cyclopropyl)-1H-pyrazole-4-carboxylic Acid] | 1 to 10 nM | – | – |
